Reference: ChEMBL document CHEMBL4334521, “Neuroprotective Dihydro-β-agarofuran-Type Sesquiterpenes from the Seeds of Euonymus maackii” (2019)
Calls of active or inactive are those of the source. No cut-off for these calls is given here.

Legend:
[1] = organism: Danio rerio; assay: Neuroprotective activity against PTZ-induced seizure in zebra fish AB at 10 uM pretreated for 24 hrs followed by PTZ-stimulation and measured after 15 mins; assay type: functional, organism-based
[2] = tested on: SH-SY5Y; assay: Neuroprotective activity against amyloid beta (25 to 35)-induced cytotoxicity in human SH-SY5Y cells at 10 uM preincubated for 2 hrs followed by amyloid beta (25 to 35)-stimulation and measured after 24 hrs by MTT assay (reference value: 71.18 +/- 1.34); assay type: functional

| Structure (SMILES) | Activity [1] | Activity [2] |
| --- | --- | --- |
| CC(=O)OC[C@]12[C@H](OC(C)=O)[C@H](OC(=O)c3ccccc3)[C@@H]3[C@@H](OC(C)=O)[C@]1(OC3(C)C)[C@H](C)C[C@H](OC(C)=O)[C@@H]2OC(=O)c1ccccc1 | Active | 80.75% |
| CC(=O)OC[C@]12[C@H](OC(=O)c3ccccc3)C[C@@H]3[C@@H](OC(C)=O)[C@]1(OC3(C)C)[C@H](C)C[C@H](OC(C)=O)[C@@H]2OC(C)=O | – | 79.62% |
| CCC(C)C(=O)O[C@H]1C[C@](C)(O)[C@]23OC(C)(C)[C@H](C[C@@H](OC(=O)c4ccoc4)[C@]2(COC(C)=O)[C@H]1OC(=O)c1ccoc1)[C@H]3OC(C)=O (some centres not stated) | – | 71% |
| CC(=O)OC[C@]12[C@H](OC(=O)c3ccoc3)C[C@@H]3[C@@H](OC(C)=O)[C@]1(OC3(C)C)[C@@](C)(O)C[C@H](OC(=O)c1ccoc1)[C@@H]2OC(=O)c1ccoc1 | – | 70.11% |
| CC(=O)OC[C@]12[C@H](OC(C)=O)[C@H](OC(=O)c3ccccc3)[C@@H]3[C@@H](OC(C)=O)[C@]1(OC3(C)C)[C@H](C)C[C@H](OC(=O)c1ccccc1)[C@@H]2OC(=O)c1ccccc1 | – | 80.92% |
| CC(=O)OC[C@]12C(=O)[C@@H](OC(=O)c3ccccc3)[C@@H]3[C@@H](OC(C)=O)[C@]1(OC3(C)C)[C@H](C)C[C@H](OC(=O)c1cccnc1)[C@@H]2O | – | 74.16% |
| CCCCCC(=O)O[C@H]1C[C@@H](C)[C@]23OC(C)(C)[C@H]([C@@H](OC(=O)c4ccccc4)[C@@H](OC(C)=O)[C@]2(COC(C)=O)[C@H]1OC(=O)c1ccccc1)[C@H]3OC(C)=O | – | 86.65% |
| CC(=O)OC[C@]12[C@H](OC(=O)c3ccoc3)C[C@@H]3[C@@H](OC(C)=O)[C@]1(OC3(C)C)[C@@](C)(O)C[C@H](OC(=O)c1ccccc1)[C@@H]2OC(=O)c1ccoc1 | – | 80.8% |
| CC(=O)OC[C@]12[C@@H](OC(=O)c3ccccc3)C[C@@H]3[C@@H](OC(C)=O)[C@]1(OC3(C)C)[C@H](C)C[C@H](OC(=O)c1ccccc1)[C@@H]2OC(C)=O | inactive | 83.04% |
| CC(=O)OC[C@]12[C@H](OC(C)=O)[C@H](OC(=O)c3ccccc3)[C@@H]3[C@@H](OC(C)=O)[C@]1(OC3(C)C)[C@H](C)C[C@H](O)[C@@H]2OC(=O)c1ccccc1 | – | 85.91% |
| CC[C@H](C)C(=O)O[C@@H]1[C@H]2[C@@H](OC(C)=O)[C@]3(OC2(C)C)[C@H](C)C[C@H](OC(=O)c2ccccc2)[C@H](OC(=O)c2ccccc2)[C@@]3(COC(C)=O)[C@@H]1OC(C)=O | – | 80.11% |
| CCC(C)C(=O)O[C@H]1[C@@H](OC(C)=O)C[C@@H](C)[C@]23OC(C)(C)[C@H](C[C@@H](OC(=O)c4ccccc4)[C@]12COC(C)=O)[C@H]3OC(C)=O (some centres not stated) | – | 88.34% |
| O=C(O[C@@H]1Cc2c(O)cc(O)cc2O[C@@H]1c1cc(O)c(O)c(O)c1)c1cc(O)c(O)c(O)c1 [EPIGALOCATECHIN GALLATE] | – | 87.2% |
| CCC(C)C(=O)O[C@H]1[C@@H](OC(=O)c2ccoc2)C[C@](C)(O)[C@]23OC(C)(C)[C@H](C[C@H](OC(=O)c4ccoc4)[C@]12COC(C)=O)[C@H]3OC(C)=O (some centres not stated) | – | 82.96% |
| CCC(C)C(=O)O[C@H]1C[C@](C)(O)[C@]23OC(C)(C)[C@H](C[C@H](OC(=O)c4ccccc4)[C@]2(COC(C)=O)[C@H]1OC(=O)C(C)CC)[C@H]3OC(C)=O (some centres not stated) | – | 92.86% |
